The values that follow come from patent US12473310B2, “Vitamin D3 phosphate and pharmaceutically acceptable salts thereof, pharmaceutical compositions comprising the compound and methods for preparing the compound” (King's College London, priority 2020, dated 2025).

Values after ≈ are worked out from the molar mass of the structure shown. Where a name gives a salt, the structure may show the parent alone. Read-outs that look alike come from different tables or passages of the source.

Data set [1] can be described thus: physchem. To be noted: for % Recovery, chemical stability with extraction fluid: 0.091 mg/mL; for recovery at 0.091 mg/mL: chemical stability with extraction fluid. The class given is physicochemical. On the procedure: To validate the method of test agent recovery from the skin, solutions (1.0 mg/mL) of cholecalciferol phosphate were prepared in 100% PG and 100% water and the same concentration of cholecalciferol was prepared in 100% PG and PG:EtOH (50:50). The precise concentrations in these samples were analysed by HPLC using the method described above.
To assess the chemical stability of cholecalciferol and cholecalciferol phosphate in the donor solutions used in the Franz cell experiments, the 1.0 mg/mL of the samples prepared in the different solvents were incubated in a water bath at 37° C. for 24 h. In addition, to understand the chemical stability of cholecalciferol and cholecalciferol phosphate in the extraction solvents used in the skin deposition studies, a 1 mL of the sample of the drug in the different solvents was added into 10 mL of extraction fluid (PG:EtOH, 50:50 for cholecalciferol and MeOH:water, 90:10 for cholecalciferol phosphate). Samples with the extraction fluid were left in the water bath overnight at 37° C. and the sample concentration was analysed by HPLC method described above.

A short description of data set [2]: skin permeation and deposition, automated Franz diffusion cell (Example 5). Format: in vitro ADME. The settings on record: PG formulation. As for the experimental part: For the final formulation, 61.5 mg of cholecalciferol phosphate acid in 4.1 mL hexane was added into 1.435 mL DURO-TAK 87-2051 (51.5 w/v %) with 16.4 μL α-tocopherol and 20.5 μL diethylene glycol monoethyl ether. Likewise, 120 mg of cholecalciferol phosphate disodium salt in 35.2 mL MeOH:water (10:1) was added to 1.336 mL of DURO-TAK 87-2051 (51.5 w/v %) in 56 mL ethyl acetate with 32 mg of α-tocopherol and 48 μL diethylene glycol monoethyl ether. Each formulation was spread evenly on the 10×10 cm patch tray and left overnight to dry completely. Following the complete drying of the solvents, the adhesive layer was covered by the M3 Release layer (SCOTCHPAK 9755, UK), compressed, and then cut using a 34 mm circular manual die cutter (SCP Super Cutting Press, UK).
Subsequently, 1 mL aliquots were applied to the skin.
The automated Franz diffusion cell was used to investigate the permeation of cholecalciferol, cholecalciferol phosphate salt and cholecalciferol phosphate acid through porcine skin. Fresh white adult porcine ears were obtained from a local butcher (Ginger Pig, UK). Any damaged ears were discarded. The ears were removed from the carcass after hair removal. […] The collected receiver fluid was analysed by HPLC methods described previously.
At the end of the transport studies, the Franz cells were dismantled, and the donor solution was collected into bottles containing 10 mL of extraction fluid; MeOH for cholecalciferol, cholecalciferol phosphate acid and MeOH:water (90:10) for cholecalciferol phosphate salt, by wiping the surface of the skin and the inside of the donor compartment with two wet and then two dry cotton buds. […] Each collection was analysed by the HPLC method described above. Thus, the amount of each test agent on the surface of the skin, deposited in the skin, and passed into the receiver fluid was determined so that % mass recovery per cm^2 per skin could be calculated and drug deposition profiles could be obtained.

Data set [3] in a line: solubility in donor solution and thermodynamic activity (Table 4). The class given is physicochemical. The settings on record: for solubility: organic solvent or mixture, thermodynamic from solid; for Thermodynamic activity: proposed concentration in permeation studies relative to solubility.
A short description of data set [4]: patch pre-formulation, saturated concentration in adhesive. Format: physicochemical. To be noted: DURO-TAK 87-2051 adhesive; phosphate disodium salt. On the procedure:
To each solution, 175 μL of the transdermal adhesive DURO-TAK 87-2051 (51.5 w/v %) was added, and vortexed. Then 2.0 μL of α-tocopherol and 2.5 μL of diethylene glycol monoethyl ether were added and vortexed. The visual solubility was assessed.
To this solution 4 mg of α-tocopherol in 3 mL ethyl acetate was added and 167 μL of the transdermal adhesive DURO-TAK 87-2051 (51.5 w/v %) in 7 mL ethyl acetate with 6 μL diethylene glycol monoethyl ether was also added.
Each solution (3×3 cm) was cast onto the backing (3M™ Scotchpak™ Polyester Backing Film Laminate 9730, UK) to determine the clarity, and the saturation limit of the test agents in the adhesive mixtures.

For orientation: solubility means the concentration that dissolves in the medium under given conditions. As for `C=C1CC[C@H](O)C/C1=C/C=C1\CCC[C@]2(C)[C@@H]([C@H](C)CCCC(C)C)CC[C@@H]12` [Cholecalciferol, cholecalciferol, reference compound], the “% Recovery, chemical stability with extraction fluid” value in data set [1] was found to be 90.52 ± 0.42%. Besides, the recovery at 0.091 mg/mL in data set [1] (% Recovery) was 91.76 ± 0.87%. In data set [1] (% Recovery, chemical stability without extraction fluid), the recovery at 24 h, 1 mg/mL amounted to 90%. Moreover, the “transdermal permeation through the skin” value in data set [2] (1.0 mm porcine skin, 24 h) was 1,245.2 IU. For the same molecule, in data set [3], the solubility was determined as 3150 µg/mL (≈ 8.19 mM) and the Thermodynamic activity is reported as 0.8.

For the molecule `C=C1CC[C@H](OP(=O)(O)O)C/C1=C/C=C1\CCC[C@@]2(C)C1CC[C@@H]2[C@H](C)CCCC(C)C` (stereo partly shown) [Cholecalciferol phosphate disodium salt, cholecalciferol phosphate disodium salt], in data set [1], the “% Recovery, chemical stability with extraction fluid” value was found to be 76.01 ± 1.42%. This molecule returned a degradation in data set [1] (24 h, 1 mg/mL) of 20%. Also, the recovery at 0.091 mg/mL in data set [1] (% Recovery) came out at 95.2 ± 5.88%. Besides, the “fold higher transdermal permeation through the skin compared to cholecalciferol” value in data set [2] (phosphate disodium salt) is approximately 35.02 fold. For the same molecule, in data set [3] (PG, read-out: Solubility in PG), the solubility is 2500 µg/mL. In addition, the Thermodynamic activity in data set [3] is reported as 1.0. Further, the “saturated concentration in patch formulation (highest loading without precipitation)” value in data set [4] is 13.57 w/w %.
